In publication PMC8165160, “Substrate Specificities and Inhibition Pattern of the Solute Carrier Family 10 Members NTCP, ASBT and SOAT” (Frontiers in Molecular Biosciences, 2021):
Counter-ions that a name gives are not always drawn. Like-named read-outs stand apart in the source and are kept apart here.

What was measured:
[1] = target: T1, SOAT (Homo sapiens, UniProt Q3KNW5); assay: Substrate screening: sodium-dependent uptake of radiolabeled compounds in SOAT-HEK293 cells; type: cell-based; conditions: SOAT-HEK293, vs sodium-free control
T1 construct: The full-length open reading frames of NTCP, ASBT, and SOAT were cloned; expressed in transfected cells; host or cells: Flp-In T-REX HEK293 (SOAT-HEK293), tetracycline-induced
T1 sequence (Q3KNW5 1-377): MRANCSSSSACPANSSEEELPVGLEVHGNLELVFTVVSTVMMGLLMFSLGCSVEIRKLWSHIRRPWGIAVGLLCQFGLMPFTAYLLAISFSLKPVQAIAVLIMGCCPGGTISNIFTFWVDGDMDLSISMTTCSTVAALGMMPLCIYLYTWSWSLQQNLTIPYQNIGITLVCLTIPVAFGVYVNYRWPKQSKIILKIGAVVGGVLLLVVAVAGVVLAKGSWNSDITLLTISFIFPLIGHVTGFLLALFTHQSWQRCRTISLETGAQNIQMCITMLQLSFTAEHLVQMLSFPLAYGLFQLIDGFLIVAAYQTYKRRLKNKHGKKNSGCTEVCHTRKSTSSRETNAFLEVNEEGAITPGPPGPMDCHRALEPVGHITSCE
Experimental: Stably SLC10 transporter transfected NTCP-HEK293, ASBT-HEK293, SOAT-HEK293 cells and the HEK293-FlpIn maternal cell line were seeded on 24-well plates (if not stated otherwise for individual assays). Well plates were coated with poly-D-lysine prior to seeding of 125,000 cells per well. Cells were grown with 1 ml of standard medium per well with or without tetracycline ([…]) for 72 h to induce carrier expression before respective assays were started. HEK293-FlpIn cells were cultivated with standard medium and served as control.
(§1) Uptake experiments were initiated by replacing the preincubation buffer by 500 μL transport buffer containing the radiolabeled test compound and were performed at 37°C. Transport was terminated by removing the transport buffer and washing five-times with ice-cold PBS. Cell monolayers were lysed in 1 N NaOH with 0.1% SDS and the cell-associated radioactivity was determined by liquid scintillation counting.
FIGURE 1 Comparative substrate screening for bile acids and sulfated steroids in NTCP-, ASBT-, and SOAT-HEK293 cells. Transport assays were performed with the indicated substrates in NTCP-HEK293, ABST-HEK293, SOAT-HEK293, and HEK293-FlpIn cells. Cells were washed and equilibrated with Na^+-containing transport buffer (filled bars) or with Na^+-free transport buffer (open bars) at 37°C. For uptake, cells were incubated with radiolabeled steroid compounds at a final concentration of 200 nM in Na^+-containing or Na^+-free transport buffer for 10 min. Radiolabeled bile acids were used at 1 µM concentrations and transport was analyzed over 30 min. HEK293-FlpIn cells served as additional controls. After the indicated time intervals, cells were washed with ice-cold PBS, lysed and subjected to liquid scintillation counting. […] 3-OH, trihydroxylated BAs; 2-OH, dihydroxylated BAs; 1-OH, monohydroxylated BAs.

[2] = target: T2, NTCP (Homo sapiens, UniProt Q14973); assay: Transport kinetics (concentration-dependent uptake) in NTCP-HEK293 cells; type: cell-based; set-up: The full-length open reading frames of NTCP, ASBT, and SOAT were cloned; expressed in transfected cells; host or cells: Flp-In T-REX HEK293 (NTCP-HEK293), tetracycline-induced; conditions: uptake via NTCP, 1 min, 37°C
T2 sequence (Q14973 1-349): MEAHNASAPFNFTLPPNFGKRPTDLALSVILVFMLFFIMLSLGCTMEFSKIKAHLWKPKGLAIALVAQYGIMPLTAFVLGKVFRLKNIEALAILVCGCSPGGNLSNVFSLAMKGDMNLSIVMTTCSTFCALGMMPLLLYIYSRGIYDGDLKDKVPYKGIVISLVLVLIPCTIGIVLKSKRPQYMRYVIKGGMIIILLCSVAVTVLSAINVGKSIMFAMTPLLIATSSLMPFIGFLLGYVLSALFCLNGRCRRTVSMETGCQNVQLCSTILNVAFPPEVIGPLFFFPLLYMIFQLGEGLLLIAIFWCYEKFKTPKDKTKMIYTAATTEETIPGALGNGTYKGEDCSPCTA
Experimental: as §1
(§2) FIGURE 2 NTCP, ASBT, and SOAT transport kinetics. Concentration-dependent uptake was analyzed in NTCP-HEK293, ASBT-HEK293, and SOAT-HEK293 cells for the indicated substrates at increasing substrate concentrations. Stably transfected HEK293 cells were pretreated with 1 μg/ml tetracycline to induce carrier expression. HEK293-FlpIn cells were used as control. Uptake was analyzed for 1 min at 37°C. Afterward, the medium was removed and each cell monolayer was washed and processed to determine the protein content and cell-associated radioactivity. Specific uptake was calculated by subtracting non-specific uptake of the HEK293-FlpIn control cells (open squares) from uptake into carrier-overexpressing HEK293 cells (filled squares) and is shown by broken lines. The values represent means ± SD of duplicate experiments, each with triplicate determinations (n = 6).

[3] = target: T2, NTCP; assay: Binding of fluorescent myr-preS1-Al633 peptide to NTCP-HEK293 cells; set-up: The full-length open reading frames of NTCP, ASBT, and SOAT were cloned; expressed in transfected cells; host or cells: Flp-In T-REX HEK293 (NTCP-HEK293), tetracycline-induced
Experimental: NTCP-HEK293 cells were seeded into 24-well-dishes as described above. For every set of induced wells an equal number of not-induced wells were used as respective background controls. Cells were washed three times with PBS and then preincubated with sodium transport buffer supplemented with MEM-amino acid solution (ThermoFisher) at 1:50 dilution at 37°C for 5 min. The fluorescent myr-preS1-Al633 peptide was added with a final concentration of 10 nM and binding experiments were performed over 10 min at 37°C. […] For calculation of the NTCP-specific binding signal, the mean background signal from the not-induced cells was subtracted. Net binding rates in the absence of any inhibitor were set to 100%.
(B) Binding of the fluorescent myr-preS1-Al633 peptide was analyzed in NTCP-HEK293 cells in the presence of increasing concentrations of TC, DHEAS, or TLC. […] Fluorescence was quantified by a fluorescence reader and values are expressed as percentage of control.

[4] = target: T3, ASBT (Homo sapiens, UniProt Q12908); assay: Transport kinetics (concentration-dependent uptake) in ASBT-HEK293 cells; type: cell-based; conditions: uptake via ASBT, 1 min, 37°C
T3 construct: The full-length open reading frames of NTCP, ASBT, and SOAT were cloned; expressed in transfected cells; host or cells: Flp-In T-REX HEK293 (ASBT-HEK293), tetracycline-induced
T3 sequence (Q12908 1-348): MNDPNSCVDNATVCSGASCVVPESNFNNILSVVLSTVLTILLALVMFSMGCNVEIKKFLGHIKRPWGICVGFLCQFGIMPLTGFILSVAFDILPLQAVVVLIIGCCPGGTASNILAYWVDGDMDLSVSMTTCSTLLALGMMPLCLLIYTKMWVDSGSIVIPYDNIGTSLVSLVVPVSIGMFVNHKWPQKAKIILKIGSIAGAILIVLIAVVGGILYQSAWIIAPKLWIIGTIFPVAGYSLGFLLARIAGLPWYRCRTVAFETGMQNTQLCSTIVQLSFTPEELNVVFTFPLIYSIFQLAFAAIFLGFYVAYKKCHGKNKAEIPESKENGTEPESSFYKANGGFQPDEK
Experimental: as §1, §2

Structure (SMILES) | Transport activity grading SOAT (mean uptake) ([1]; radiolabeled steroid compounds 200 nM, 10 min) | Apparent K m [2] [µM] | V max [2] [pmol/mg protein/min] | IC50 [3] [µM] | Apparent K m [4] [µM] | V max [4] [pmol/mg protein/min] | Transport activity grading SOAT (mean uptake) ([1]; radiolabeled bile acids 1 µM, 30 min) | IC50 ([3]; 10 nM myr-preS1-Al633, 10 min, 37°C, NTCP-HEK293, read-out: IC50 for inhibition of myr-preS1 peptide binding to NTCP) [µM]
C[C@]12CC[C@H](OS(=O)(=O)O)CC1=CC[C@@H]1[C@@H]2CC[C@]2(C)C(=O)CC[C@@H]12 [DHEAS, Dehydroepiandrosterone sulfate] | ++ (“++” for values between 10 and 100) | 56.1 ± 8.0 | 2198 ± 101.7 | 52 | – | – | – | –
C[C@H](CCC(=O)NCCS(=O)(=O)O)[C@H]1CC[C@H]2[C@@H]3[C@H](O)C[C@@H]4C[C@H](O)CC[C@]4(C)[C@H]3C[C@H](O)[C@]12C [Taurocholic acid] | – | 13.1 ± 0.8 | 2395 ± 59 | – | 14.7 ± 1.5 | 1821 ± 75.1 | – | –
C[C@H](CCC(=O)NCCS(=O)(=O)O)[C@H]1CC[C@H]2[C@@H]3CC[C@@H]4C[C@H](O)CC[C@]4(C)[C@H]3CC[C@]12C [Taurolithocholic acid] | – | 18.4 ± 2.3 | 5915 ± 189 | – | 5.9 ± 1.8 | 1585 ± 99.7 | ++ (“++” for values between 500 and 1000) | 4.3
